Measurements taken from patent US20120245229A1, “METHOD FOR TREATING NEUROPATHIC PAIN” (priority 2009, published 2012).

Assays:
ERK phosphorylation = ERK phosphorylation (pERK) in superficial dorsal horn neurons of spinal slices; format: cell-based, mice; settings: TNF-α 10 ng/ml, 5 min
Protocol: Spinal cord slice preparation. As previously reported^39, a portion of the lumbar spinal cord (L4-L5) was removed from young mice (3-4 week old) under urethane anesthesia (1.5-2.0 g/kg, i.p.) and transverse spinal cord slices were cut (600 μm) on a vibrating microslicer. The slices were perfused with Kreb's solution (8 ml/min) for >2 h prior to experiments. Some slices were stimulated with TNF-α (10 ng/ml, 5 min), the slices were fixed with 4% paraformaldehyde for 1 h, and processed pERK immunohistochemistry using thin sections (15 μm)^13.
Resolvins were also used for intraplantar injection. RvD1 or RvE1 was injected into the plantar surface of a hindapaw [20 ng, 20 μl , in 1% ethanol (Supplementary FIG. 5a, 5b) or in 10% ethanol (FIG. 2e, Supplementary FIG. 1d)]. […]
PERK immunohistochemistry in the spinal cord: Transverse spinal cord slices (600 μm) were cut on a vibrating microslicer. […] The stained sections were examined with a Nikon fluorescence microscope, and images were captured with a CCD Spot camera. The number of pERK-immunoreactive cells in the superficial dorsal horn (laminae I-III) was quantified in 5 spinal cord sections from each slice and averaged for that slice, and 4-5 slices from separate animals were included for data analysis^12.

[1] = system: proinflammatory cytokines (TNF-α, IL-1β, IL-6) and chemokines (MCP-1, MIP-1α); assay: Cytokine array of inflamed hindpaw skin after carrageenan; format: in vivo, mouse; settings: intraplantar RvE1 20 ng prior to CRG; 2 h after CRG
Protocol: The mouse cytokine array kits were purchased from R&D. Protein samples were prepared in the same way as for Western blotting analysis. Each reaction was performed according to manufacturer's protocol using 400 μg proteins. In brief, protein samples were incubated with a blot (array) that is pre-coated with 40 cytokines/chemokines for 24 h at 4° C. The remaining procedures were similar to that of Western blotting. Also see Gao et al., 2009^12.

[2] = system: formalin-induced inflammatory pain; assay: Formalin-induced spontaneous inflammatory pain (licking/flinching duration); format: in vivo, mice; settings: intraplantar RvE1 20 ng, 10 min before intraplantar formalin
[3] = system: SNL-induced neuropathic pain; assay: Neuropathic pain model induced by spinal nerve ligation (SNL); format: in vivo, mice
Protocol: (§1) Animals and pain models. Adult CD1 mice (male, 25-32 g) were used for most experiments. Knockout mice were used lacking TNFR1/II (Tnfrsf1a/1b^−/−) and TRPV1 (Trpv1^−/−) and C57BL/6 wild-type control mice, all from Jackson, for some experiments. All animal procedures performed in this study were approved by the Harvard Medical Area Standing Committee on Animals. 20 μl of diluted formalin (5%), carrageenan (CRG, 1%), or complete Freund's adjuvant (CFA) were injected into the plantar surface of a hindpaw to produce acute, persistent, or chronic inflammatory pain, respectively. Postoperative pain was also produced through hindpaw incision^36 and neuropathic pain by ligation of the spinal nerve^37.
(§2) Behavioral analysis. Mice were habituated in the testing environment for two days and performed behavioral testing in a blinded manner. Formalin-evoked spontaneous inflammatory pain was assessed by measuring duration (seconds) animals spent on licking/flinching the affected paws every 5 min for 45 min. Capsaicin-induced spontaneous pain was aslo assessed for 10 min. For testing mechanical sensitivity, mice were put in boxes on an elevated metal mesh floor and stimulated hindpaw with a series of von Frey hairs with logarithmically incrementing stiffness (0.02-2.56 grams, Stoelting), presented perpendicular to the plantar surface. It was determined the 50% paw withdrawal threshold using Dixon's up-down method^40. For testing heat sensitivity, mice were placed in plastic boxes and tested heat sensitivity using Hargreaves radiant heat apparatus (IITC Life Science Inc.). The basal paw withdrawal latency was adjusted to 9-12 seconds and set a cut-off of 20 seconds to prevent tissue damage. The percent maximal possible antinociceptive effect (% M.P.E) was calculated using the equation % M.P.E.=[(PL−BL2)/(BL1−BL2)]×100. BL1, baseline latency before inflammation; BL2, baseline latency after inflammation but before drug injection; PL, latency post drug injection.

[4] = system: formalin-induced inflammatory pain; assay: Formalin-induced spontaneous inflammatory pain (licking/flinching duration); format: in vivo, mice
Protocol: as §1
Reagents and administration. RvE1 and RvD1 were suspended in 1% or 10% ethanol as vehicle for investigating acute (<1 h) and persistent (1-6 h) effects of resolvins on inflammatory pain. The reagents (10 μl) were delivered to the cerebral spinal fluid via intrathecal injection made by a spinal cord puncture between the L5 and L6 level with a 30G needle^38.
as §2
Intrathecal injection. To avoid systemic effects of drugs and target spinal mechanisms, drugs were delivered into cerebral spinal fluid (CSF) space around lumbosacral spinal cord via intrathecal (i.t.) administration. Spinal cord puncture was made with a 30G needle between the L5 and L6 level to deliver the reagents (10 μl) to the cerebral spinal fluid (Hylden and Wilcox, 1980)^5. […] In addition to spinal cord cells, intrathecal drug administration also affects DRG cells^6,7.
Intrathecal injection: DHA and EPA (Cayman Chemical, 10 μg, prepared in 1% ethanol), COX-2 inhibitor NS-398 (Sigma, 0.1, 1, and 10 μg, prepared in 1% ethanol in FIG. 1a-c or in 10% ethanol in FIG. 2c), morphine (Sigma, 10 to 500 ng, prepared in 1% ethanol in FIG. 1a-c), naloxone (Sigma, 2 μg, prepared in 1% ethanol), pertussis toxin (Tocris Bioscience, 0.2 μg, prepared in saline), chemerin (R & D Systems, 0.45 to 100 ng, prepared in 1% ethanol), TNF-α (R & D Systems, 20 ng, prepared in saline), and capsaicin (Sigma, 0.5 μg in 10 μl, prepared in 1% DMSO) were delivered. To examine whether pretreatment of RvE1 attenuated TNF-α-induced persistent hyperalgesia at 1, 3, and 24 h, RvE1 and TNF-α were mixed and injected at the same time (FIG. 3c). To examine whether pretreatment of RvE1 attenuates capsaicin-induced acute spontaneous pain, RvE1 and capsaicin were mixed and injected at the same time (FIG. 3f).

[5] = system: paw incision-induced postoperative pain; assay: Postoperative pain model induced by hindpaw incision; format: in vivo, mice; settings: postoperative pain model induced by surgical incision
Protocol: as §1
Behavioral analysis. Mice were habituated in the testing environment for two days and performed behavioral testing in a blinded manner. Formalin-evoked spontaneous inflammatory pain was assessed by measuring duration (seconds) animals spent on licking/flinching the affected paws every 5 min for 45 min. Capsaicin-induced spontaneous pain was aslo assessed for 10 min. […] It was determined the 50% paw withdrawal threshold using Dixon's up-down method^40. […] The percent maximal possible antinociceptive effect (% M.P.E) was calculated using the equation % M.P.E.=[(PL−BL2)/(BL1−BL2)]×100. […]

naïve mice = assay: Basal pain thresholds in naive mice; format: in vivo; settings: intrathecal
Protocol: as §2

With `CC[C@@H](O)/C=C/C=C\C[C@@H](O)/C=C/C=C/C=C\[C@@H](O)CCCC(=O)O` [RvE1, 5S,12R,18R-trihydroxyeicosapentaenoic acid] the “TNF-α-induced ERK phosphorylation in superficial dorsal horn neurons” value (ERK phosphorylation) was “reduced the phosphorylation”, the “expression of proinflammatory cytokines (TNF-α, IL-1β, IL-6) and chemokines (MCP-1, MIP-1α) in inflamed hindpaws” value [1] was “reducing” and the formalin-evoked acute pain [2] was “rapidly attenuated”. For the same molecule, the SNL-induced heat hyperalgesia ([3]; 10 ng, i.t., one day after spinal nerve ligation) was “reduces SNL-induced heat hyperalgesia”, the nerve injury-induced hyperalgesia ([3]; neuropathic pain model induced by spinal nerve ligation) was “potently attenuate” and the “effective dose range compared with morphine and NS-398, formalin 2nd phase” value ([4]; intrathecal, dose response curve FIG. 1c) was “much lower than that of either morphine or the COX-2 inhibitor NS-398”. The “formalin-induced pain behavior, 1st phase” value ([4]; preemptive intrathecal injection, RvE1 0.3 and 1.0 ng) was “not the 1st phase”, the “formalin-induced pain behavior, 2nd phase” value ([4]; preemptive intrathecal injection, RvE1 0.3 and 1.0 ng, morphine 10 to 500 ng, NS-398 0.1, 1, and 10 μg, chemerin 0.45 to 100 ng) was “reduced” and the postoperative pain [5] was “effectively abolish”. For the same molecule, the baseline sensory thresholds (naïve mice) was “did not alter baseline sensory thresholds”.
